The assay deals with T1, PDE5A1 (human PDE5 from platelets) (Homo sapiens, UniProt O76074).
T1 construct: from tissue; host or cells: platelets from fresh blood of human donors (10,000 g supernatant of sonified platelets)
Briefly: Inhibition of type 5 phosphodiesterase (PDE5) activity, modified SPA test. It is filed as biochemical. As to conditions: PDE5-containing human platelet lysate, 0.5 μM cGMP, value classes, read-out: PDE5A1 inhibitory values [measured as −logIC50 (mol/l)] (converted). The protocol: Method for Measuring Inhibition of the Type 5 Phosphodiesterase (PDE5) Activity:
As a source for human PDE5, platelets are used. For that purpose, 150 ml fresh blood from human donors anticoagulated with citrate [final concentration 0.3% (w/v)] is centrifuged at 200 g for 10 min to obtain the so-called platelet-rich-plasma (PRP) as a supernatant. 1/10 volume of ACD solution (85 mM Na3-citrate, 111 mM D-glucose, 71 mM citric acid, pH 4.4) is added to 9/10 volume of PRP. After centrifugation (1,400 g, 10 min) the cell pellet is resuspended in 3 ml homogenization buffer (NaCl 140 mM, KCl 3.8 mM, EGTA (ethylene glycol tetraacetic acid) 1 mM, MgCl2 1 mM, Tris-HCl 20 mM, beta-mercaptoethanol 1 mM, pH 8.2) plus protease-inhibitor mix giving rise to the final concentrations of 0.5 mM Pefablock (Roche), 10 μM Leupeptin, 5 μM Trypsininhibitor, 2 mM Benzamidin and 10 μM Pepstatin A. The suspension is sonified and thereafter centrifuged for 15 min at 10,000 g. The resulting supernatant (platelet lysate) is used for enzymatic testings.
PDE5A1 activity is inhibited by the compounds of the present subject matter in a modified SPA (scintillation proximity assay) test, supplied by Amersham Biosciences (see procedural instructions “phosphodiesterase [3H]cAMP SPA enzyme assay, code TRKQ 7090”), carried out in 96-well microtitre plates (MTP's). The test volume is 100 μl and contains 20 mM Tris buffer (pH 7.4), 0.1 mg of BSA (bovine serum albumin)/ml, 5 mM Mg^2+, 1 μM motapizone, 10 nM PDE2 inhibitor 2-(3,4-dimethoxybenzyl)-7-[(1R,2R)-2-hydroxy-1-(2-phenylethyl)propyl]-5-methylimidazo[5,1-t][1,2,4]triazin-4(3H)-one, 0.5 μM cGMP (cyclic guanosine monophosphate) (including about 50,000 cpm of [3H]cGMP as a tracer), 1 μl of the respective compound dilution in dimethylsulfoxide (DMSO) and sufficient PDE5-containing platelet lysat (10,000×g supernatant, see above) to ensure that 10-20 wt % of the cGMP is converted under the said experimental conditions. […] After a preincubation of 5 min at 37° C., the reaction is started by adding the substrate (cGMP) and the assay is incubated for a further 15 min; after that, it is stopped by adding SPA beads (50 μl). In accordance with the manufacturer's instructions, the SPA beads had previously been resuspended in water, but are then diluted 1:3 (v/v) in water; the diluted solution also contains 3 mM 8-methoxymethyl-3-isobutyl-1-methylxanthine (IBMX) to ensure a complete PDE activity stop. After the beads have been sedimented (>30 min), the MTP's are analyzed in commercially available luminescence detection devices. The corresponding IC50 values of the compounds for the inhibition of PDE activity are determined from the concentration-effect curves by means of non-linear regression.
On to `Cc1[nH]c2c(-c3ccc(F)cc3OCC3CC3)ccnc2c1C(=O)N[C@H]1CC[C@@H](NC(=O)[C@H](C)O)CC1` [Example F11, 7-[2-(Cyclopropylmethoxy)-4-fluorophenyl]-N-(cis-4-{[(2S)-2-hydroxypropanoyl]amino}cyclohexyl)-2-methyl-1H-pyrrolo[3,2-b]pyridine-3-carboxamide], for which the IC50 was 1 to 10 nM.

Take `CCC(=O)N[C@H]1CC[C@H](NC(=O)c2c(C)[nH]c3c(-c4ccc(OC)cc4OCC4CC4)ccnc23)CC1` [Example E35, 7-[2-(Cyclopropylmethoxy)-4-methoxyphenyl]-2-methyl-N-[trans-4-(propanoylamino)cyclohexyl]-1H-pyrrolo[3,2-b]pyridine-3-carboxamide]: the IC50 was less than 1 nM. The result for `COc1ccc(-c2ccnc3c(C(=O)N[C@H]4CC[C@H](NC(=O)[C@H](C)O)CC4)c(C)[nH]c23)c(OCC2CC2)c1` [Example F23, 7-[2-(Cyclopropylmethoxy)-4-methoxyphenyl]-N-(trans-4-{[(2S)-2-hydroxypropanoyl]amino}cyclohexyl)-2-methyl-1H-pyrrolo[3,2-b]pyridine-3-carboxamide] reads less than 1 nM; that for `Cc1ccc(OCC2CC2)c(-c2ccnc3c(C(=O)N[C@H]4CC[C@@H](NC(=O)CO)CC4)c(C)[nH]c23)c1` [Example F38, 7-[2-(Cyclopropylmethoxy)-5-methylphenyl]-N-{cis-4-[(hydroxyacetyl)amino]cyclohexyl}-2-methyl-1H-pyrrolo[3,2-b]pyridine-3-carboxamide], 1 to 10 nM.

Consider `CC(=O)N1CCC(NC(=O)c2c(C)[nH]c3c(-c4cc(C)ccc4OCC4CC4)ccnc23)CC1` [Example E52, N-(1-Acetylpiperidin-4-yl)-7-[2-(cyclopropylmethoxy)-5-methylphenyl]-2-methyl-1H-pyrrolo[3,2-b]pyridine-3-carboxamide], for which the IC50 was 1 to 10 nM. Turning to `COc1cc(-c2ccnc3c(C(=O)N[C@@H]4CN(C(C)=O)C[C@H]4O)c(C)[nH]c23)c(OCC2CC2)cc1F` (relative stereo) [Example E70, N-[(3R*,4R*)-1-Acetyl-4-hydroxypyrrolidin-3-yl]-7-[2-(cyclopropylmethoxy)-4-fluoro-5-methoxyphenyl]-2-methyl-1H-pyrrolo[3,2-b]pyridine-3-carboxamide], the IC50 was less than 1 nM.

For `CCOC(=O)N[C@H]1CC[C@@H](NC(=O)c2c(C)[nH]c3c(-c4c(OCC5CC5)ccc5c4OCO5)ccnc23)CC1` [Example E09, Ethyl {cis-4-[({7-[5-(cyclopropylmethoxy)-1,3-benzodioxol-4-yl]-2-methyl-1H-pyrrolo[3,2-b]pyridin-3-yl}carbonyl)amino]cyclohexyl}carbamate], the IC50 was less than 1 nM.

For `CCC(=O)N[C@H]1CC[C@@H](NC(=O)c2c(C)[nH]c3c(-c4cc(OC)ccc4OCC4CC4)ccnc23)CC1` [Example E47, 7-[2-(Cyclopropylmethoxy)-5-methoxyphenyl]-2-methyl-N-[cis-4-(propanoylamino)cyclohexyl]-1H-pyrrolo[3,2-b]pyridine-3-carboxamide], the IC50 was 1 to 10 nM.

Take `Cc1[nH]c2c(-c3cc(F)ccc3OCC3CC3)ccnc2c1C(=O)N[C@H]1CC[C@@H](NC(=O)[C@H](C)O)CC1` [Example F17, 7-[2-(Cyclopropylmethoxy)-5-fluorophenyl]-N-(cis-4-{[abs.(2S)-2-hydroxypropanoyl]amino}cyclohexyl)-2-methyl-1H-pyrrolo[3,2-b]pyridine-3-carboxamide]: the IC50 is 1 to 10 nM. The result for `COCC(=O)N1C[C@@H](O)[C@H](NC(=O)c2c(C)[nH]c3c(-c4cc(OC)c(F)cc4OCC4CC4)ccnc23)C1` (relative stereo) [Example E72, 7-[2-(Cyclopropylmethoxy)-4-fluoro-5-methoxyphenyl]-N-[(3R*,4R*)-4-hydroxy-1-(methoxyacetyl)pyrrolidin-3-yl]-2-methyl-1H-pyrrolo[3,2-b]pyridine-3-carboxamide] reads less than 1 nM; that for `COc1ccc(-c2ccnc3c(C(=O)N[C@H]4CC[C@H](NC(C)=O)CC4)c(C)[nH]c23)c(OCC2CC2)c1` [Example E34, N-[trans-4-(Acetylamino)cyclohexyl]-7-[2-(cyclopropylmethoxy)-4-methoxyphenyl]-2-methyl-1H-pyrrolo[3,2-b]pyridine-3-carboxamide], less than 1 nM. Next, `CCC(=O)N1CCC(NC(=O)c2c(C)[nH]c3c(-c4ccc(F)cc4OCC4CC4)ccnc23)CC1` [Example E11, 7-[2-(Cyclopropylmethoxy)-4-fluorophenyl]-2-methyl-N-(1-propanoylpiperidin-4-yl)-1H-pyrrolo[3,2-b]pyridine-3-carboxamide]: less than 1 nM. Regarding `COCC(=O)N1CCC(NC(=O)c2c(C)[nH]c3c(-c4cc(F)ccc4OCC4CC4)ccnc23)CC1` [Example E21, 7-[2-(Cyclopropylmethoxy)-5-fluorophenyl]-N-[1-(methoxyacetyl)piperidin-4-yl]-2-methyl-1H-pyrrolo[3,2-b]pyridine-3-carboxamide], the IC50 is 1 to 10 nM.

Turning to `COCC(=O)N1CC[C@@H](NC(=O)c2c(C)[nH]c3c(-c4cc(OC)c(F)cc4OCC4CC4)ccnc23)[C@H](O)C1` (relative stereo) [Example E75, 7-[2-(Cyclopropylmethoxy)-4-fluoro-5-methoxyphenyl]-N-[(3R*,4R*)-3-hydroxy-1-(methoxyacetyl)piperidin-4-yl]-2-methyl-1H-pyrrolo[3,2-b]pyridine-3-carboxamide], the IC50 is less than 1 nM.

`COc1ccc(-c2ccnc3c(C(=O)NC4CCN(C(=O)CO)CC4)c(C)[nH]c23)c(OCC2CC2)c1` [Example F20, 7-[2-(Cyclopropylmethoxy)-4-methoxyphenyl]-N-[1-(hydroxyacetyl)piperidin-4-yl]-2-methyl-1H-pyrrolo[3,2-b]pyridine-3-carboxamide]: the IC50 is less than 1 nM. `CC(=O)N[C@H]1CC[C@H](NC(=O)c2c(C)[nH]c3c(-c4ccc(F)cc4OCC4CC4)ccnc23)CC1` [Example E13, N-[trans-4-(Acetylamino)cyclohexyl]-7-[2-(cyclopropylmethoxy)-4-fluorophenyl]-2-methyl-1H-pyrrolo[3,2-b]pyridine-3-carboxamide]: the IC50 is less than 1 nM. The result for `COCC(=O)N1CCC(NC(=O)c2c(C)[nH]c3c(-c4ccc(OC)cc4OCC4CC4)ccnc23)CC1` [Example E33, 7-[2-(Cyclopropylmethoxy)-4-methoxyphenyl]-N-[1-(methoxyacetyl)piperidin-4-yl]-2-methyl-1H-pyrrolo[3,2-b]pyridine-3-carboxamide] reads less than 1 nM; that for `COc1cc(OCC2CC2)c(-c2ccnc3c(C(=O)NC4CCN(C(C)=O)CC4)c(C)[nH]c23)cc1F` [Example E76, N-(1-Acetylpiperidin-4-yl)-7-[2-(cyclopropylmethoxy)-5-fluoro-4-methoxyphenyl]-2-methyl-1H-pyrrolo[3,2-b]pyridine-3-carboxamide], less than 1 nM. Next, `Cc1[nH]c2c(-c3cc(F)ccc3OCC3CC3)ccnc2c1C(=O)N[C@@H]1CCN(C(=O)CO)C[C@H]1O` (relative stereo) [Example F18, 7-[2-(Cyclopropylmethoxy)-5-fluorophenyl]-N-[rel.(3R,4R)-3-hydroxy-1-(hydroxyacetyl)piperidin-4-yl]-2-methyl-1H-pyrrolo[3,2-b]pyridine-3-carboxamide]: 1 to 10 nM; `COc1cc(-c2ccnc3c(C(=O)N[C@H]4CC[C@H](NC(=O)CO)CC4)c(C)[nH]c23)c(OCC2CC2)cc1F` [Example F42, 7-[2-(Cyclopropylmethoxy)-4-fluoro-5-methoxyphenyl]-N-{trans-4-[(hydroxyacetyl)amino]cyclohexyl}-2-methyl-1H-pyrrolo[3,2-b]pyridine-3-carboxamide]: less than 1 nM. Next, `Cc1[nH]c2c(-c3cc(F)ccc3OCC3CC3)ccnc2c1C(=O)N[C@H]1CC[C@@H](NC(=O)CO)CC1` [Example F16, 7-[2-(Cyclopropylmethoxy)-5-fluorophenyl]-N-{cis-4-[(hydroxyacetyl)amino]cyclohexyl}-2-methyl-1H-pyrrolo[3,2-b]pyridine-3-carboxamide]: 1 to 10 nM.
